The results in this text go back to patent US11608343B2, “Substituted pyrimido[5,4-d]pyrimidines as HER2 inhibitors” (Boehringer Ingelheim International GmbH, priority 2020, dated 2023).

Some results are limits rather than exact numbers.

Format in all cases: cell-based
The subject of assay [1] is Ba/F3 cells expressing EGFR WT. In words: Ba/F3 proliferation assay, EGFR WT (EGF dependent), CellTiter-Glo. The conditions noted are these: Mus musculus, BaF3, EGF instead of IL-3, 72 h, read-out: GI50 BAF3 EGF dep. The procedure:
(§1) Ba/F3 Cell Model Generation and Proliferation Assays
(§2) Plasmids containing HER2 mutants and EGFR WT were obtained from GeneScript. To generate EGFR/HER2-dependent Ba/F3 models, Ba/F3 cells are transduced with retroviruses containing vectors that harbor EGFR WT, HER2 WT or HER2 mutants (YVMA). Platinum-E cells (Cell Biolabs) are used for retrovirus packaging. Retrovirus is added to Ba/F3 cells. To ensure infection, 4 μg/mL polybrene is added and cells are spin-infected. Infection efficiency is confirmed by measuring GFP-positive cells using a cell analyzer. Cells with an infection efficiency of 10% to 20% are further cultivated and puromycin selection with 1 μg/mL is initiated. As a control, parental Ba/F3 cells are used to assess the selection status. Selection is considered successful when parental Ba/F3 cells cultures die. To evaluate the transforming potential of HER2 mutations, the growth medium is no longer supplemented with IL-3. Ba/F3 cells harboring the empty vector are used as a control. A switch from IL-3 to EGF is performed for Ba/F3 cells expressing EGFR WT known for its dependency on EGF ligand. Approximately ten days before conducting the experiments, puromycin is left out. For proliferation assays (data in tables 10 and 12), Ba/F3 cells are seeded into 96-well plates at 5×10^3 cells/100 μL in growth media. Compounds are added by using a HP D3000 Digital Dispenser. All treatments are performed in technical triplicates. Treated cells are incubated for 72 h at 37° C. with 5% CO2. A CellTiter-Glo® Luminescent Cell Viability Assay (Promega) is performed and chemoluminescence is measured by using the multilabel Plate Reader VICTOR X4. The raw data are imported into and analyzed with the Boehringer Ingelheim proprietary software MegaLab (curve fitting based on the program PRISM, GraphPad Inc.).

The subject of assay [2] is NCI-H2170 (HER2 wild type) cells. Kind of assay: Tumor cell line proliferation assay, NCI-H2170 (HER2 wild type), CellTiter-Glo. As to conditions: Homo sapiens, 72 h, read-out: GI50 NCI H-2170 HER2 wt amp. The method, then: (§3) For proliferation assays, NCI-H2170 (HER2 wild type), NCI-H2170 HER2 YVMA and EGFR WT dependent A431 cells are used. NCI-H2170 HER2 YVMA or NCI-H2170 cells are seeded into 96-well plates at 750 cells/60 μL in growth media (RPMI ATCC+10% FCS, +Penicillin/Streptomycin). […] Compounds are added by using a HP D3000 Digital Dispenser one day after plating the cells. All treatments are performed in technical triplicates. Treated cells are incubated for 72 h at 37° C. with 5% CO2. CellTiter-Glo® Luminescent Cell Viability Assay (Promega) is performed and chemoluminescence is measured by using the multilabel Plate Reader VICTOR X4. The raw data are imported into and analyzed with the Boehringer Ingelheim proprietary software MegaLab (curve fitting based on the program PRISM, GraphPad Inc.).

The target of the next assay is T1, HER2 YVMA (Homo sapiens, UniProt P04626, INS775YVMA).
T1 construct: expressed in transfected cells; host or cells: human HEK cells, retroviral transduction, doxycycline-inducible expression
Kind of assay: pHER2 (ERBB2) YVMA assay: phosphorylation of HER2 YVMA at Tyr1221/1222 in HEK cells (AlphaScreen Surefire). The conditions noted are these: doxycycline induced, 4 h with compound. The method, then:
For the assay, HEK HER2 YVMA cells are seeded in MEM medium with 10% FBS. 4 hours prior to compound addition, HER2 YVMA expression is induced using 1 μg/mL Doxycycline. […] Subsequently, 60.000 cells/well in 60 μL are added. Cells are incubated with compound for 4 h at 37° C. […] The mixture is incubated at a temperature of 20-25° C. with shaking (700 rpm) for 20 min. After centrifugation, 4 μL of the lysate are transferred to Proxiplates. […] Plates are shaken for 1 min (1400 rpm) and incubated for 2 h at a temperature of 20-25° C. in the dark. […] Plates are shaken for 1 min (1400 rpm) and incubated for 2 h at a temperature of 20-25° C. in the dark. Plates are subsequently analyzed using an Envision reader platform. […] IC50 values are computed from these values in the MEGASTAR IC50 application using a 4 parametric logistic model. […] The results of the assay are provided as IC50 values.
In general terms: Bead proximity is the source of the signal in Alpha formats.

The subject of assay [3] is EGFR WT dependent A431 cells. In words: Tumor cell line proliferation assay, EGFR WT dependent A431 cells, CellTiter-Glo. The conditions noted are these: Homo sapiens, A-431, 72 h, read-out: GI50 A431 EGFR wt amp. The procedure:
as §3
A general note: ATP-based viability assays read luminescence as a measure of living cells.

Another assay has as its target T2, EGFR wild type (WT) (Homo sapiens, UniProt P00533).
T2 construct: expressed in transfected cells; host or cells: human HEK cells (ATCC CRL-1573), retroviral transduction
In words: pEGFR assay: phosphorylation of EGFR at Tyr1068 in HEK cells expressing EGFR WT (AlphaScreen Surefire). The conditions noted are these: 4 h with compound. The method, then: This assay quantifies the phosphorylation of EGFR at Tyr1068 and is used to measure the inhibitory effect of compounds on the transgenic EGFR wild type (WT) protein expressed in HEK cells.
Transduced cells are selected using puromycin. p-EGFR Tyr1068 is determined using the AlphaScreen Surefire pEGF Receptor (Tyr1068) Assay (PerkinElmer, TGRERS). For the assay, HEK EGFR WT cells are seeded in MEM medium with 10% FBS. […] Subsequently, 60.000 cells/well in 60 μL are added. Cells are incubated with compound for 4 h at 37° C. […] The mixture is incubated at a temperature of 20-25° C. with shaking (700 rpm) for 20 min. After centrifugation, 4 μL of the lysate are transferred to Proxiplates. […] Plates are shaken for 1 min (1400 rpm) and incubated for 2 h at a temperature of (20-25° C.) in the dark. […] Plates are shaken for 1 min (1400 rpm) and incubated for 2 h at a temperature of (20-25° C.) in the dark. Plates are subsequently analyzed using an Envision reader platform. […] IC50 values are computed from these values in the MEGASTAR IC50 application using a 4 parametric logistic model.
This cellular phospho-EGFR (pEGFR) compound dose-response assay quantifies the phosphorylation of EGFR at Tyr1068 in HEK cells expressing EGFR WT. The results of the assay are provided as IC50 values.

Assay [4] has as its system NCI-H2170 HER2 YVMA cells. In words: Tumor cell line proliferation assay, NCI-H2170 HER2 YVMA, CellTiter-Glo. As to conditions: Homo sapiens, 72 h, read-out: GI50 NCI H-2170 HER2 YVMA.
Description: HER2 YVMA Tumor Cell Line Model Generation and Proliferation Assays
Homology-directed genome engineering is employed to insert a 12 nucleotide sequence encoding YVMA into Exon 20 of the genomic HER2 locus in NCI-H2170 cells. […] The DNA template containing the HER2 exon 20 YVMA insertion variant was obtained from GenScript. PCR followed by Sanger sequencing is used to confirm the presence of the 12-nucleotide insertion in HER2 Exon 20 resulting in the YVMA amino acid duplication.
as §3

In assay [5] the test system is Ba/F3 cells HER2 mutants (YVMA). Kind of assay: Ba/F3 proliferation assay, HER2 YVMA, CellTiter-Glo. As to conditions: Mus musculus, BaF3, 72 h. The procedure: as §1, §2
For a further assay, the system named is Ba/F3 cells HER2 WT. Kind of assay: Ba/F3 proliferation assay, HER2 WT, CellTiter-Glo. The conditions noted are these: Mus musculus, BaF3, 72 h. The procedure: as §1, §2

T1 sequence (P04626 with tags, fused parts or gaps INS775YVMA): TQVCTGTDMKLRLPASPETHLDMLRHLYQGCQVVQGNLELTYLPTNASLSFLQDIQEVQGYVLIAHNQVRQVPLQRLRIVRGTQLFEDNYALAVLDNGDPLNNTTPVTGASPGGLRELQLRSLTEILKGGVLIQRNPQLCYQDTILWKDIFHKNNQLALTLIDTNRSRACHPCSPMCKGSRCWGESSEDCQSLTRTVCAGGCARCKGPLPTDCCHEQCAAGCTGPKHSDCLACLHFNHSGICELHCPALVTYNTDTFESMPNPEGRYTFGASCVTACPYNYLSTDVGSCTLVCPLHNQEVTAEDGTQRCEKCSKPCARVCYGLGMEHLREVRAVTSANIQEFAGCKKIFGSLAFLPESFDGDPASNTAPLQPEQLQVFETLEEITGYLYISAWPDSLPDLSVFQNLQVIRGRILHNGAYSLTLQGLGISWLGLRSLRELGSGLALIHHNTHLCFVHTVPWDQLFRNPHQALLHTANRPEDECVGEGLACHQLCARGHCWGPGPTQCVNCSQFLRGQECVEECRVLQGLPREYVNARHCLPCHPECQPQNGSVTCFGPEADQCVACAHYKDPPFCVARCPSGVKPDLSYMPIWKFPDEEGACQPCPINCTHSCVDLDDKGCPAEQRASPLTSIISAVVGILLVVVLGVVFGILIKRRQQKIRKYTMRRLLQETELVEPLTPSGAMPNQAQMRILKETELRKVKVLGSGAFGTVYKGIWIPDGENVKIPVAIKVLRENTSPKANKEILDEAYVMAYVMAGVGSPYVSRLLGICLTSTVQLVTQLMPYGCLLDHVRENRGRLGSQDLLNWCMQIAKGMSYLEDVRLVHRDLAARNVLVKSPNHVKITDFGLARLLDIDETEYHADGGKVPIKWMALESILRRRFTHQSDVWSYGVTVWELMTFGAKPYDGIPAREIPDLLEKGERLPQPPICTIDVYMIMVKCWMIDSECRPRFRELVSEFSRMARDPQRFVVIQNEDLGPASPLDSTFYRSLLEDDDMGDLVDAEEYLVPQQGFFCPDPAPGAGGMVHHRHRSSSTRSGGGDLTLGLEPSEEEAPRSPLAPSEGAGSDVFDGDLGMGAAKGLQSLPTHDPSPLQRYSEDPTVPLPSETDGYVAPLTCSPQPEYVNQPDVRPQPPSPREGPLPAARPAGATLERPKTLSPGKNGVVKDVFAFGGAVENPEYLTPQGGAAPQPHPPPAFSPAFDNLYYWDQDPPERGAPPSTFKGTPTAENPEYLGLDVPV
T2 sequence (P00533 25-1210): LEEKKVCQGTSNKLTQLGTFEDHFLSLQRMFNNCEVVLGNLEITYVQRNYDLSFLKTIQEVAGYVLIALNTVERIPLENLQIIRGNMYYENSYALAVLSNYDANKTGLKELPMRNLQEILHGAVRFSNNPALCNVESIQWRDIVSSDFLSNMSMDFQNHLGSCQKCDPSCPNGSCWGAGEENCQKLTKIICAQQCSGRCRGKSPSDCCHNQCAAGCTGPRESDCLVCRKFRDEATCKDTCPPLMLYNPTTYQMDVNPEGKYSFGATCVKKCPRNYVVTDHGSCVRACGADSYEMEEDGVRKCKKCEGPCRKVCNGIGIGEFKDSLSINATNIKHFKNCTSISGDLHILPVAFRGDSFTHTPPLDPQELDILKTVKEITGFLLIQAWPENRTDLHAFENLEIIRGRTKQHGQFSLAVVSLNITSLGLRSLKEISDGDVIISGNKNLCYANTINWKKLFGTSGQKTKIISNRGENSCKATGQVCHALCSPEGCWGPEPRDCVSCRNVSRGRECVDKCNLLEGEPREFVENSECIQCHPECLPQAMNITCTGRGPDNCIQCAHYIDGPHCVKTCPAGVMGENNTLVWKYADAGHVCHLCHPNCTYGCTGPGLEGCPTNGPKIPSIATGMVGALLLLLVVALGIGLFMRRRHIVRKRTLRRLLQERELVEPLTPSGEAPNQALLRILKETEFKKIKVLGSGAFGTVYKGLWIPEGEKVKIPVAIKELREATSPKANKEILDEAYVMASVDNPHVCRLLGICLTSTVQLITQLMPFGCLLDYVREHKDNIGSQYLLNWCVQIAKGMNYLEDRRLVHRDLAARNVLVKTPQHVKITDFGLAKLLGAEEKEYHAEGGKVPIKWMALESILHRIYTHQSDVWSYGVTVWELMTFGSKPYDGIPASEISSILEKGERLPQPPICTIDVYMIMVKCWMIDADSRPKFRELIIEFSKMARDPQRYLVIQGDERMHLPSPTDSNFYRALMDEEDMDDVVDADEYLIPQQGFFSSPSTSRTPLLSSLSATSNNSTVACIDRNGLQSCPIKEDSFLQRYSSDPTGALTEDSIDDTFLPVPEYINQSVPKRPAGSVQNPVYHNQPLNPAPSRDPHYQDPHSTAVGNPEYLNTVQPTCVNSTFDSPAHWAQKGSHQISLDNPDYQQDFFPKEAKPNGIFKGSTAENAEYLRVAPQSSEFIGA

By GI50 is commonly meant the concentration at which growth is held to half of that of the control. As a reminder, the IC50 is the concentration needed to halve the response being measured. Consider `C=CC(=O)Nc1ccc2ncnc(Nc3ccc(OCc4cccc(F)c4)c(Cl)c3)c2c1` [Allitinib, reference compound], for which the GI50 was 31 nM in assay [1]; 36 nM in assay [2]; 403 nM in assay [3]; 203 nM in assay [4]; 17 nM in assay [5]. Besides, the IC50 at HER2 YVMA turned out to be 3 nM; on EGFR wild type (WT), 1 nM.

As for `C=CC(=O)NC1CCN(c2ncc3ncnc(Nc4ccc(Oc5ccc6c(c5)ncn6C)c(C)c4)c3n2)CC1` [Example I-01], the GI50 in the assay with Ba/F3 cells HER2 WT is 1 nM; in assay [1], 1540 nM; in assay [2], 6 nM; in assay [3] it was greater than 5000 nM; in assay [4], 33 nM; in assay [5] it was 16 nM. Besides, the IC50 on HER2 YVMA was found to be 13 nM.

On to `C#Cc1cc(Nc2ncnc3cnc(N4CCC(NC(=O)C=C)CC4)nc23)ccc1Oc1ccc2c(c1)ncn2C` [Example I-02], for which the GI50 is 1 nM in the assay with Ba/F3 cells HER2 WT; 3010 nM in assay [1]; 13 nM in assay [2]; greater than 5000 nM in assay [3]; 228 nM in assay [4]; 37 nM in assay [5]. For the same compound, the IC50 on HER2 YVMA was found to be 34 nM; at EGFR wild type (WT), 628 nM.

In the case of `C=CC(=O)NC1CCN(c2ncc3ncnc(Nc4ccc(Oc5ccc6c(c5)ncn6C)c(OC)c4)c3n2)CC1` [Example I-03], the 50% growth inhibitory concentration (GI50) in the assay on Ba/F3 cells HER2 WT was 2 nM; in assay [1] it was greater than 5000 nM; in assay [2] it was 11 nM; in assay [3], greater than 5000 nM; in assay [4] it was 139 nM; in assay [5], 38 nM. Besides, the IC50 at HER2 YVMA worked out at 20 nM; at EGFR wild type (WT) it was 916 nM.

For `C=CC(=O)NC1(C)CCN(c2ncc3ncnc(Nc4ccc(Oc5ccc6c(c5)ncn6C)c(OC)c4)c3n2)CC1` [Example I-04], the GI50 in the assay with Ba/F3 cells HER2 WT was 3 nM; in assay [1], greater than 5000 nM; in assay [2], 12 nM; in assay [3], greater than 5000 nM; in assay [4] it was 99 nM; in assay [5], 32 nM. Moreover, the IC50 stood at 26 nM on HER2 YVMA and 495 nM on EGFR wild type (WT).

As to `C=CC(=O)NC1CCN(c2ncc3ncnc(Nc4ccc(Oc5ccc6c(c5)ncn6C)c(Cl)c4)c3n2)CC1` [Example I-05], the GI50 was 1 nM with Ba/F3 cells HER2 WT; 1880 nM in assay [1]; 8 nM in assay [2]; greater than 5000 nM in assay [3]; 55 nM in assay [4]; 21 nM in assay [5]. Moreover, the results for the IC50 on HER2 YVMA and on EGFR wild type (WT) were 10 nM and 315 nM, respectively.

Turning to `C=CC(=O)NC1CCN(c2ncc3ncnc(Nc4cc(F)c(Oc5ccn6ncnc6c5)c(Cl)c4)c3n2)CC1` [Example I-06], the GI50 in the assay with Ba/F3 cells HER2 WT was 1 nM; in assay [1] it was greater than 5000 nM; in assay [2] it was 12 nM; in assay [3], greater than 5000 nM; in assay [4] it was 215 nM; in assay [5], 31 nM. Further, the IC50 at HER2 YVMA worked out at 44 nM; on EGFR wild type (WT), 773 nM.

As for `C=CC(=O)NC1CN(c2ncc3ncnc(Nc4ccc(Oc5ccc6c(c5)ncn6C)c(C)c4)c3n2)C1` [Example I-07], the 50% growth inhibitory concentration (GI50) with Ba/F3 cells HER2 WT was 3 nM; in assay [1] it was 1500 nM; in assay [2], 17 nM; in assay [3] it was greater than 5000 nM; in assay [4], 73 nM; in assay [5] it was 42 nM. In addition, the IC50 at HER2 YVMA amounted to 20 nM; at EGFR wild type (WT), 1170 nM.

On to `C=CC(=O)N1CC[C@@H](Nc2ncc3ncnc(Nc4ccc(Oc5ccn6ncnc6c5)c(C)c4)c3n2)C1` [Example I-18], for which the GI50 in assay [1] is 3270 nM; in assay [2], 10 nM; in assay [3], greater than 2000 nM; in assay [4] it was 87 nM; in assay [5], 29 nM. The IC50 at HER2 YVMA stood at 4 nM; at EGFR wild type (WT), 137 nM.

With `C=CC(=O)N1CCC[C@@H](n2nc(-c3ccc(Oc4ccccc4)cc3)c3c(N)ncnc32)C1` [Ibrutinib, reference compound], the 50% growth inhibitory concentration (GI50) was determined as 70 nM in assay [1]; 16 nM in assay [2]; 199 nM in assay [3]; 132 nM in assay [4]; 44 nM in assay [5].

For the compound `CCOc1cc2ncc(C#N)c(Nc3ccc(OCc4ccccn4)c(Cl)c3)c2cc1NC(=O)/C=C/CN(C)C` [Neratinib, reference compound], the GI50 in assay [1] came out at 14 nM; in assay [2], 3 nM; in assay [3], 55 nM; in assay [4] it was 37 nM; in assay [5], 5 nM.

In the case of `C=CC(=O)N1CCC(Oc2cc3c(Nc4ccc(Cl)c(Cl)c4F)ncnc3cc2OC)CC1` [Poziotinib, reference compound], the GI50 with Ba/F3 cells HER2 WT turned out to be 1 nM; in assay [1] it was 1 nM; in assay [2], 1 nM; in assay [3] it was 1 nM; in assay [4], 5 nM; in assay [5], 2 nM. For the same compound, the IC50 on HER2 YVMA came to 5 nM.

Turning to `C=CC(=O)Nc1ccc2ncnc(Nc3ccc(Oc4ccc5c(c4)ncn5C)c(C)c3)c2c1` [WO 2007/059257 Ex. 185, reference compound], the GI50 in assay [1] was 1190 nM; in assay [2], 108 nM; in assay [3], greater than 5000 nM; in assay [4] it was 926 nM; in assay [5], 60 nM. Besides, the IC50 at HER2 YVMA came to 33 nM; at EGFR wild type (WT) it was 317 nM.
